The values that follow come from patent publication US20240122179A1, “AUXINIC HERBICIDES AND METHODS OF USE THEREOF” (CORTEVA AGRISCIENCE LLC, priority 2021, published 2024).

Read-outs that look alike come from different tables or passages of the source.

The test system of data set [1] is Amaranthus rudis (AMATA). In words: Postemergence herbicide evaluation, percent reduction in plant size vs untreated control, 21 days after treatment. In kind it is in vivo, Amaranthus rudis (tall water hemp). To be noted: Amaranthus tuberculatus, post-emergence, 504 h, AMATA, postemergence, read-out: Control/Injury; for pest or weed control at 140 g/ha: rate 140 g ae/ha; for pest or weed control at 280 g/ha: rate 280 g ae/ha. Put shortly: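 Greenhouse-grown tall waterhemp (25-28° C, 16 h light) at the 2-8 leaf stage, treated by track sprayer at 187 L/ha with compound at 140 or 280 g ae/ha in acetone/DMSO-based spray solution with crop oil and surfactant. 3-4 replicates per treatment, randomized complete block; plant size reduction versus untreated control measured 21 days after treatment.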

In data set [2] the test system is Amaranthus palmeri (AMAPA). Described as above. To be noted: post-emergence, 504 h, postemergence, read-out: Control/Injury; for pest or weed control at 140 g/ha: rate 140 g ae/ha; for pest or weed control at 280 g/ha: rate 280 g ae/ha. In kind it is in vivo, Amaranthus palmeri (Palmer amaranth). The procedure, abridged: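 Greenhouse-grown Palmer amaranth (25 to 28° C, 16 h light) sprayed postemergence at the 2 to 8 leaf stage with 140 or 280 g ae/ha in acetone/DMSO-based solution containing crop oil concentrate, 187 L/ha by track sprayer. Three to four replicates; plant size measured 21 days after treatment as percent reduction versus untreated control.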

Data set [3] concerns Ambrosia artemisiifolia (AMBEL). Described as above. In kind it is in vivo, Ambrosia artemisiifolia (common ragweed). To be noted: post-emergence, 504 h, AMBEL, postemergence, read-out: Control/Injury; for pest or weed control at 140 g/ha: rate 140 g ae/ha; for pest or weed control at 280 g/ha: rate 280 g ae/ha. The procedure, abridged: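 Greenhouse-grown plants (25–28 °C, 16 h light) were sprayed postemergence at the 2–8 leaf stage with 140 or 280 g ae/ha in acetone/DMSO-based spray solution with crop oil and surfactant, at 187 L/ha by track sprayer. There were 3–4 replicates. Plant size was measured 21 days after treatment versus untreated plants.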

Data set [4] deals with Glycine max. Nature of the data set: whole plant or invertebrate. To be noted: for Control/Injury: in vivo. As to the method: Plants were grown in a soil media composed of 90% by volume Promix BX (Premier Tech Horticulture, Quakertown, PA) and 10% Profile Greens Grade (Profile Products LLC, Buffalo Grove, IL). Promix BX contains approximately 83% Sphagnum Peat Moss, 13% Perlite, 5% vermiculite, and proprietary amounts of limestone, starter fertilizer, and wetting agent. Profile Greens Grade is a sand-sized granule formed from calcining illite and montmorillonite clay. Several seeds of each species were planted in 10 cm square pots and top watered twice daily. Plant material was propagated in a warm greenhouse with temperature ranging from 25 to 28° C. and 50 to 60% relative humidity at the Corteva Global Headquarters (Indianapolis, Indiana, USA). Natural light was supplemented with 1000-watt metal halide overhead lamps with an average illumination of 500 μE m^−2 s^−1 photosynthetic active radiation for 16 consecutive hours each day. Plants were top-watered prior to herbicide application and sub-watered after herbicide application.
Appropriate amounts of test materials were weighed out into glass vials in their technical form to deliver either 140 or 280 g acid equivalent (ae)/ha. The samples were dissolved in 3 ml of Solvent 1. Solvent 1 is 97% acetone and 3% dimethyl sulfoxide and serves as a general-purpose solvent (GPS) for dissolving technical materials. […] The samples were then diluted to their final concentration using 17 ml of solvent 2 for a total of 20 ml of spray solution. Solvent 2 contains 41.58% GPS, 45.53% water, 11.88% isopropyl alcohol, 0.99% crop oil concentrate and 0.02% Trition X-155 surfactant. All percentages are listed on a volume basis. Dicamba diglycolamine was applied as a formulated herbicide, Clarity™ and diluted with solvent 2 to compare all materials in the same spray solution.
Herbicide applications were made to 3 to 4 replicates of each plant species at the 2 to 8 leaf stage, depending on the species. Treatments were applied with a research track-sprayer (Generation III Research Sprayer manufactured by DeVries Manufacturing in Hollandale, MN, USA) calibrated to deliver a spray volume of 187 L/ha. The track-sprayer was fitted with an 8003E nozzle from Spray Systems Company (North Avenue and Schmale Road, P.O. Box 7900, Wheaton, IL 60187), and used a spray pressure of 276 kPa pressure and a speed of 3.1 km/h. The nozzle height was 46 cm above the plant canopy. The experimental design used for the trials was a randomized complete block with 3 or 4 replications per treatment. After application, plants were placed on carts according to the randomization and returned to the greenhouse. Plants were sub-watered after treatment with Indianapolis city water or fertilized three times a week with a commercial fertilizer solution (Jack's Professional 15-5-15 4 Ca 2 Mg fertilizer (manufactured by JR PETERS INC., 6656 Grant Way, Allentown, PA 18106; www.jrpeters.com). Percent visual control assessments were made on a scale of 0 to 100% (where 0 was no control and 100 was complete plant death) at 7, 14, and 21 days after treatment.
In conformity with the methods outlined in Example 49, the effect of representative experimental compounds on the growth of Glycine max was determined at 2 different levels (respectively, 140 and 280 g acid equivalent (ae)/ha) of the experimental actives tested. Plants were treated with one of the compounds, a control plant was not treated. Twenty-one days after treatment, the plants were measured. The data is present as a percent reduction in plant size relative to the untreated control.

The test system of data set [5] is Kochia scoparia (KCHSC). Nature of the data set: Postemergence herbicide evaluation, percent reduction in plant size vs untreated control, 21 days after treatment. To be noted: Bassia scoparia, post-emergence, 504 h, KCHSC, postemergence, read-out: Control/Injury; for pest or weed control at 140 g/ha: rate 140 g ae/ha; for pest or weed control at 280 g/ha: rate 280 g ae/ha. In kind it is in vivo. Put shortly: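 Greenhouse-grown plants (25-28 °C, 16 h light) at the 2 to 8 leaf stage were track-sprayed postemergence at 140 or 280 g ae/ha in acetone/DMSO-based spray solution with crop oil and surfactant, at 187 L/ha, in 3-4 randomized replicates.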

The subject of data set [6] is Conyza canadensis (L.) (ERICA). Described as above. It is filed as in vivo, Conyza canadensis (L.) (Horseweed). To be noted: Erigeron canadensis, post-emergence, 504 h, ERICA, postemergence, read-out: Control/Injury; for pest or weed control at 140 g/ha: rate 140 g ae/ha; for pest or weed control at 280 g/ha: rate 280 g ae/ha. The procedure, abridged:
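Horseshoe-weed (horseweed) seedlings at 2 to 8 leaf stage in greenhouse (25-28° C, 16 h light), sprayed postemergence at 140 or 280 g ae/ha in acetone/DMSO-based spray solution, 187 L/ha track-sprayer. Randomized complete block, 3-4 replicates; plant size measured 21 days after treatment as percent reduction vs untreated controls.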

[7] abbreviates: R-AMAPA, percent reduction vs untreated control, 21 days after treatment.
Where [8] appears, read: percent reduction vs untreated control, 21 days after treatment.
[9] abbreviates: Glycine max, post-emergence, 504 h, read-out: Control/Injury.
[10] abbreviates: percent reduction vs untreated, 21 days after treatment.

Consider `COc1c(Cl)ccc(Cl)c1C(=O)Nc1ncccn1` [Compound A-62], for which the pest or weed control at 140 g/ha amounted to 65% in data set [1]; 73% in data set [2] (setting [7]); 83% in data set [3]; 77% in data set [5]; 82% in data set [6] (setting [8]). For the same molecule, the pest or weed control at 280 g/ha in data set [1] amounted to 76%; in data set [2] (setting [7]), 92%; in data set [3], 87%; in data set [5], 90%; in data set [6] (setting [8]), 93%. Further, in data set [4], the Control/Injury amounted to 3.
For the molecule `COCCONC(=O)c1c(Cl)ccc(Cl)c1OC` [Compound A-95], the pest or weed control at 140 g/ha in data set [2] (AMAPA) was found to be 5%; in data set [2] (setting [7]), 42%; in data set [5] (setting [8]), 57%; in data set [5] (setting [10]) it was 3%; in data set [6], 3%; in data set [6] (setting [8]) it was 8%. For the same molecule, the pest or weed control at 280 g/ha in data set [2] (AMAPA) is 13%; in data set [2] (setting [7]), 55%; in data set [5] (setting [8]), 77%; in data set [5] (setting [10]), 3%; in data set [6], 5%; in data set [6] (setting [8]) it was 17%. Also, the plant injury at 140 g/ha in data set [4] (setting [9]) is 4%. In addition, in data set [4] (setting [9]), the plant injury at 280 g/ha came to 6%. For the same molecule, the Control/Injury in data set [4] is recorded as 15.
In the case of `COC(=O)C(C(=O)OC)C(=O)c1c(Cl)ccc(Cl)c1OC` [Compound A-135], the pest or weed control at 140 g/ha in data set [1] amounted to 0%; in data set [2] (AMAPA), 6%; in data set [3] it was 23%; in data set [5] (setting [10]), 3%; in data set [6] it was 10%. Also, the pest or weed control at 280 g/ha in data set [1] was 5%; in data set [2] (AMAPA), 10%; in data set [3] it was 35%; in data set [5] (setting [10]), 3%; in data set [6], 25%.
As for `COc1c(Cl)ccc(Cl)c1C(=O)O/N=C(\N)CC/C(N)=N/OC(=O)c1c(Cl)ccc(Cl)c1OC` [Compound A-140], the pest or weed control at 140 g/ha in data set [1] was found to be 70%; in data set [2] (setting [7]) it was 54%; in data set [3], 94%; in data set [5] (setting [10]), 95%; in data set [6] (setting [10]) it was 83%. Moreover, the pest or weed control at 280 g/ha in data set [1] was found to be 68%; in data set [2] (setting [7]), 59%; in data set [3], 94%; in data set [5] (setting [10]), 98%; in data set [6] (setting [10]), 83%.
As for `COc1c(Cl)ccc(Cl)c1C(=O)O/N=C(\N)CCCC/C(N)=N/OC(=O)c1c(Cl)ccc(Cl)c1OC` [Compound A-145], the pest or weed control at 140 g/ha in data set [1] amounted to 60%; in data set [2] (setting [7]) it was 55%; in data set [3], 88%; in data set [5] (setting [10]) it was 94%; in data set [6] (setting [10]), 83%. The pest or weed control at 280 g/ha turned out to be 64% in data set [1]; 65% in data set [2] (setting [7]); 96% in data set [3]; 91% in data set [5] (setting [10]); 78% in data set [6] (setting [10]).
On to `COc1c(Cl)ccc(Cl)c1C(=O)O/N=C(\N)CCCCCC/C(N)=N/OC(=O)c1c(Cl)ccc(Cl)c1OC` [Compound A-147], for which the pest or weed control at 140 g/ha was found to be 59% in data set [1]; 43% in data set [2] (setting [7]); 80% in data set [3]; 93% in data set [5] (setting [10]); 50% in data set [6] (setting [10]). Besides, the pest or weed control at 280 g/ha turned out to be 49% in data set [1]; 38% in data set [2] (setting [7]); 81% in data set [3]; 88% in data set [5] (setting [10]); 60% in data set [6] (setting [10]).
With `COc1c(Cl)ccc(Cl)c1C(=O)O` [Dicamba, 3,6-dichloro-2-methoxybenzoic acid, reference compound], the pest or weed control at 140 g/ha in data set [1] was 99%; in data set [2] (AMAPA), 78%; in data set [3], 97%; in data set [5] (setting [10]), 94%; in data set [6], 94%. Further, the pest or weed control at 280 g/ha in data set [1] was 90%; in data set [2] (AMAPA), 94%; in data set [3], 100%; in data set [5] (setting [10]) it was 97%; in data set [6], 100%.
